Experimental data: US20260345574A1, “POTENT AND SELECTIVE IRREVERSIBLE INHIBITORS OF IRAK1” (Dana-Farber Cancer Institute, Inc., priority 2022, published 2026)
pIC50: −log10 of the molar value.

How the values were obtained:
IRAK1 = IRAK1 (Homo sapiens, UniProt P51617); experiment: Adapta Universal Kinase Assay (ThermoFisher) against IRAK1; type: biochemical; settings: Histone H3 (1-20) peptide substrate, 60 minutes at room temperature
Experimental: To measure the IC50 values of the compounds herein against IRAK1, the Adapta Universal Kinase Assay (ThermoFisher) was used. Briefly, 100 nL of different concentrations of the compounds in 100% DMSO were added to each well of a 384-well plate (Corning Cat. #4512). 2.4 μL of 30 mM HEPES, 2.5 μL of 4× ATP solution (in water), and 5 μL of 2× IRAK1/Histone H3 (1-20) peptide mixture (prepared in 50 mM HEPES pH 7.5, 0.01% BRIJ-35, 10 mM MgCl2, 1 mM EGTA) were added to each well. The plate was shaken for 30 seconds and centrifuged for 1 minute at 1000×g. The plate was then incubated at room temperature for 60 minutes. 5 μL of Detection Mix was added to each well. The plate was shaken for 30 seconds and centrifuged for 1 minute at 1000×g. The plate was then incubated at room temperature for 60 minutes. The plate was subsequently read on a fluorescence plate reader, and the emissions ratio was calculated to determine the ratio of ATP to ADP. Emissions Ratio=AF647 Emission (665 nm)/Europium Emission (615 nm).

IRAK4 = target: T1, IRAK4 (Homo sapiens, UniProt Q9NWZ3); experiment: Z'-LYTE assay (ThermoFisher) against IRAK4; type: biochemical; settings: Ser/Thr 07 substrate, 60 minutes at room temperature
T1 sequence (Q9NWZ3 1-460): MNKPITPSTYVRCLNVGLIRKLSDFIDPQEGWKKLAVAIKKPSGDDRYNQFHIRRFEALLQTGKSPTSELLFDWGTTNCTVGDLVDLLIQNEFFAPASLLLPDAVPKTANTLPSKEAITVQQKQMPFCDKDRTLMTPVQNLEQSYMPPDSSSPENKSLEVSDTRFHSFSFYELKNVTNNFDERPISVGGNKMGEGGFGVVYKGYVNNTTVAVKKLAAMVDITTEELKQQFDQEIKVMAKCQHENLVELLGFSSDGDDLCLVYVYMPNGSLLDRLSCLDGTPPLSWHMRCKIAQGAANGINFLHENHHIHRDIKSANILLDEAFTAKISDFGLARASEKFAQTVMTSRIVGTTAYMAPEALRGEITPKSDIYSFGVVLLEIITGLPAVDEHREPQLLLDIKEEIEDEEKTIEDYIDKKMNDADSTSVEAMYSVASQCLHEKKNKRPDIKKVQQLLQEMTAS
Experimental: To measure the IC50 values of compounds herein against IRAK4, a Z′-LYTE assay (ThermoFisher) was used. Briefly, 2.5 μL of different concentrations of the compounds in 1% DMSO were added to 2.4 μL kinase buffer (50 mM HEPES pH 7.5, 0.01% BRIJ-35, 10 mM MgCl2, 1 mM EGTA) in each well of a 384-well plate (Corning Cat. #3676). 5 μL of 2× IRAK4/Ser/Thr 07 mixture (prepared in 50 mM HEPES pH 7.5, 0.01% BRIJ-35, 10 mM MnCl2, 2 mM DTT, and 0.02% NaN3) and 2.5 μL of 4× ATP solution (4× ATP, 50 mM HEPES, pH 7.5, 0.01% BRIJ-35, 10 mM MgCl2, 1 mM EGTA) were added to each well. The plate was shaken for 30 seconds, and then incubated at room temperature for 60 minutes. 5 μL of a 1:100000 dilution of Development Reagent A was added to each well. The plate was shaken for 30 seconds and incubated for 60 minutes at room temperature. The plate was subsequently read on a fluorescence plate reader, and the emissions ratio was calculated to determine the ratio of Ser/Thr 07 phosphorylated by the reaction. Emissions Ratio=Coumarin Emission (443 nm)/Flourescein Emission (520 nm).

IRAK1, sequence (P51617 whole entry): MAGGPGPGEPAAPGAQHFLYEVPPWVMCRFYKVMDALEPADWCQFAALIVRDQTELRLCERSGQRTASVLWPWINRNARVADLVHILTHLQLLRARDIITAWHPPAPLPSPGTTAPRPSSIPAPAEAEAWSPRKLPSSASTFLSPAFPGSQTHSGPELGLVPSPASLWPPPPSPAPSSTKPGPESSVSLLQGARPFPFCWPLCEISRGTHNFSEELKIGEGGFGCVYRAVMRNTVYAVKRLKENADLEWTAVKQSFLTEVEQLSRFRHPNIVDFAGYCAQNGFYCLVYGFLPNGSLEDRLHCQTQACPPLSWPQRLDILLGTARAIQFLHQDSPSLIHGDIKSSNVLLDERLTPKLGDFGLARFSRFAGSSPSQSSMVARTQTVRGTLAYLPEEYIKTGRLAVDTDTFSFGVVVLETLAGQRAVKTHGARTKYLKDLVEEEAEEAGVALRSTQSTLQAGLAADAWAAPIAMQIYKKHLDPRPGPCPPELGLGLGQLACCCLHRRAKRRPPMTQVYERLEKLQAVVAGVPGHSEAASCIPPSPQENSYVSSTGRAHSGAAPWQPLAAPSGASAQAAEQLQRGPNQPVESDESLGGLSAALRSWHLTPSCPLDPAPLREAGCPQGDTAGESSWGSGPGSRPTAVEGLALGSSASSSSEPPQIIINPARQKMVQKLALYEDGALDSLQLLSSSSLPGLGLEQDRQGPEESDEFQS

Row | SMILES | pIC50 (IRAK1) | pIC50 (IRAK4)
1 | C=CC(=O)N1CC(c2nc(-c3ccc(NC(=O)c4cccc(-c5[nH]ncc5Cl)n4)c(F)c3)no2)CC(F)(F)C1 (stereo not drawn) [Compound 092, N-(4-(5-(1-acryloyl-5,5-difluoropiperidin-3-yl)-1,2,4-oxadiazol-3-yl)-2-fluorophenyl)-6-(4-chloro-1H-pyrazol-5-yl)picolinamide] | 8.00 | < 5.00
2 | C=CC(=O)N1CC(C(F)(F)F)C[C@H](c2nc(-c3ccc(NC(=O)c4cccc(-c5ccn[nH]5)n4)nc3)no2)C1 (stereo partly drawn) [Compound 009, N-(5-(5-((3S)-1-acryloyl-5-(trifluoromethyl)piperidin-3-yl)-1,2,4-oxadiazol-3-yl)pyridin-2-yl)-6-(1H-pyrazol-5-yl)picolinamide] | 8.40 | < 5.00
3 | C=CC(=O)N1C[C@@H](c2nc(-c3ccc(NC(=O)c4cccc(-c5ccn[nH]5)n4)nc3)no2)CC(F)(F)C1 [Compound 063] | 7.83 | < 5.00
4 | C=CC(=O)N1CCC[C@H](C(=O)Nc2ccc(-c3nnc(-c4cccc(-c5ccn[nH]5)n4)[nH]3)nc2)C1 [Compound 018] | 8.40 | 6.90
5 | C=CC(=O)N1C[C@@H](c2nc(-c3ccc(NC(=O)c4cccc(-c5ccn[nH]5)n4)c(F)c3)no2)CC(F)(F)C1 [Compound 090, (S)-N-(4-(5-(1-acryloyl-5,5-difluoropiperidin-3-yl)-1,2,4-oxadiazol-3-yl)-2-fluorophenyl)-6-(1H-pyrazol-5-yl)picolinamide] | 8.18 | < 5.00
6 | C=CC(=O)N1CCC[C@H](c2nc(-c3ccc(NC(=O)c4cccc(-c5ccn[nH]5)n4)cc3)no2)C1 [Compound 075] | 7.44 | < 5.00
7 | C=CC(=O)N1CCC[C@H](C(=O)Nc2ccc(-c3ncc(-c4cccc(-c5ccn[nH]5)n4)[nH]3)nc2)C1 [Compound 024] | 8.18 | 6.32
8 | C=CC(=O)N1CCC[C@H](c2nc(-c3ccc(NC(=O)c4cccc(-c5ccnn5CC5(C(F)(F)F)CC5)n4)nc3)no2)C1 [Compound 017, (S)-N-(5-(5-(1-acryloylpiperidin-3-yl)-1,2,4-oxadiazol-3-yl)pyridin-2-yl)-6-(1-((1-(trifluoromethyl)cyclopropyl)methyl)-1H-pyrazol-5-yl)picolinamide] | < 5.00 | < 5.00
9 | C=CC(=O)N1CC(c2nc(-c3ccc(NC(=O)c4cccc(-c5[nH]ncc5Cl)n4)nc3)no2)CC(F)(F)C1 (stereo not drawn) [Compound 008, N-(5-(5-(1-acryloyl-5,5-difluoropiperidin-3-yl)-1,2,4-oxadiazol-3-yl)pyridin-2-yl)-6-(4-chloro-1H-pyrazol-5-yl)picolinamide] | 8.29 | < 5.00
10 | C=CC(=O)N1CCC[C@H](c2nnc(-c3ccc(NC(=O)c4cccc(-c5ccn[nH]5)n4)nc3)o2)C1 [Compound 005, (S)-N-(5-(5-(1-acryloylpiperidin-3-yl)-1,3,4-oxadiazol-2-yl)pyridin-2-yl)-6-(1H-pyrazol-5-yl)picolinamide] | 7.02 | 5.03
11 | C=CC(=O)N1CCC[C@H](C(=O)Nc2ccc(Nc3nsc4ccc(-c5ccn[nH]5)nc34)cc2)C1 [Compound 025] | 8.65 | 6.45
12 | C=CC(=O)N1CCC[C@H](c2nc(-c3ccc(NC(=O)c4cccc(-c5ccn[nH]5)n4)c(Cl)c3)no2)C1 [Compound 079, (S)-N-(4-(5-(1-acryloylpiperidin-3-yl)-1,2,4-oxadiazol-3-yl)-2-chlorophenyl)-6-(1H-pyrazol-5-yl)picolinamide] | 8.35 | 6.01
13 | C=CC(=O)N1CCC[C@H](c2nc(-c3ccc(NC(=O)c4cccc(-c5[nH]ncc5C)n4)cc3)no2)C1 [Compound 085, (S)-N-(4-(5-(1-acryloylpiperidin-3-yl)-1,2,4-oxadiazol-3-yl)phenyl)-6-(4-methyl-1H-pyrazol-5-yl)picolinamide] | 8.17 | 5.06
14 | C=CC(=O)N1CCC[C@H](C(=O)Nc2ccc(NC(=O)c3csc(-c4ccn[nH]4)n3)nc2)C1 [Compound 068, (S)-N-(5-(1-acryloylpiperidine-3-carboxamido)pyridin-2-yl)-2-(1H-pyrazol-5-yl)thiazole-4-carboxamide] | 6.49 | 5.24
15 | C=CC(=O)N1CCC[C@H](C(=O)Nc2ccc(Nc3n[nH]c4ccc(-c5ccn[nH]5)nc34)cc2)C1 [Compound 026] | 8.16 | 6.44
16 | C=CC(=O)N1CCC[C@H](C(=O)Nc2ccc(-c3nc(-c4cccc(-c5ccn[nH]5)n4)no3)nc2)C1 [Compound 020] | 8.59 | 6.48
17 | C=CC(=O)N1CCC[C@H](C(=O)Nc2ccc(NC(=O)c3csc(-c4ccn[nH]4)n3)cc2)C1 [Compound 071, (S)-N-(4-(1-acryloylpiperidine-3-carboxamido)phenyl)-2-(1H-pyrazol-5-yl)thiazole-4-carboxamide] | 6.22 | 5.09
18 | C=CC(=O)N[C@@H]1CNC[C@H](c2nc(-c3ccc(NC(=O)c4cccc(-c5ccn[nH]5)n4)c(F)c3)no2)C1 [Compound 098, N-(4-(5-((3R,5S)-5-acrylamidopiperidin-3-yl)-1,2,4-oxadiazol-3-yl)-2-fluorophenyl)-6-(1H-pyrazol-5-yl)picolinamide] | 7.34 | < 5.00
